Assay results taken from PubChem BioAssay (NCI).
Where “and” joins values, the source holds several entries; their conditions need not be identical. Equal values may be shown once.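 Cultured in 96-well plates, cells were exposed to test compound for 48 hours across five concentrations. GI50 is the concentration that inhibits growth by half. TGI denotes the concentration required for complete inhibition of growth.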

Legend:
Experiment in all cases: DTP human tumour cell line panel, 48 h
UACC-62 melanoma = system: UACC-62 melanoma
SNB-19 CNS = system: SNB-19 CNS
LOX IMVI melanoma = system: LOX IMVI melanoma
786-0 renal = system: 786-0 renal
HL-60(TB) leukemia = system: HL-60(TB) leukemia
SF-295 CNS = system: SF-295 CNS
U251 CNS = system: U251 CNS
NCI-H460 lung = system: NCI-H460 lung
OVCAR-5 ovarian = system: OVCAR-5 ovarian
HOP-92 NSCLC = system: HOP-92 NSCLC

Compound	GI50 (UACC-62 melanoma) [µM]	TGI (UACC-62 melanoma) [µM]	GI50 (SNB-19 CNS)	TGI (SNB-19 CNS)	GI50 (LOX IMVI melanoma)	TGI (LOX IMVI melanoma)	GI50 (786-0 renal)	TGI (786-0 renal)	GI50 (HL-60(TB) leukemia)	TGI (HL-60(TB) leukemia)	GI50 (SF-295 CNS)	TGI (SF-295 CNS)	GI50 (U251 CNS)	TGI (U251 CNS)	GI50 (NCI-H460 lung)	TGI (NCI-H460 lung)	GI50 (OVCAR-5 ovarian)	TGI (OVCAR-5 ovarian)	GI50 (HOP-92 NSCLC)	TGI (HOP-92 NSCLC)
O=C1Nc2cc(-c3cccc(O)c3)ccc2/C1=C/c1ccc[nH]1	2.63	8.89	3.5 µM	15.1 µM	1.31 µM	3.11 µM	2.22 µM	7.32 µM	1.51 µM	7.05 µM	2.34 µM	5.23 µM	2.38 µM	12.1 µM	0.46 µM	3.96 µM	2.89 µM	15.4 µM	1.9 µM	6.26 µM
O=[P+](O)c1ccccn1		> 100		> 100 µM		> 100 µM		> 100 µM		> 100 µM		> 100 µM		> 100 µM		> 100 µM		> 100 µM		> 100 µM
Cc1ccc(S(=O)(=O)OCC#CCOS(=O)(=O)c2ccc(C)cc2)cc1	3.96	12.6	7.11 µM	22.2 µM	1.15 µM	2.56 µM	2.57 µM	7.15 µM	1.51 µM	3.55 µM	1.74 µM	3.62 µM	1.69 µM	3.22 µM	1.8 µM	4.07 µM	4.99 µM	14.5 µM	1.97 µM	4.17 µM
Cc1ccc(S(=O)(=O)N/N=C(\c2nc3ccc([N+](=O)[O-])cc3[nH]c2=O)C(O)c2ccc([N+](=O)[O-])cc2)cc1 (stereo not given)		> 100		> 100 µM		> 100 µM		> 100 µM		95.6 µM		> 100 µM		> 100 µM		> 100 µM		> 100 µM		> 100 µM
CN(C)CCC(/C=C/c1ccccc1)=N\Nc1ccc(Cl)c(Cl)c1		7.25		20.2 µM		3.71 µM		9.26 µM		7.31 µM		11.2 µM		13.6 µM		4.25 µM		15.6 µM		4.4 µM
NC(=S)N=Nc1c(O)[nH]c2c(Cl)cc(Cl)cc12		34.1		> 100 µM		48 µM		92.9 µM		49.6 µM		46.6 µM		40.9 µM		> 100 µM		> 100 µM		> 100 µM
CS(=O)(=O)Nc1cc(-c2ccc3ncnc(Nc4ccc(F)c(Cl)c4)c3c2)cnc1Cl	0.255	1.56	0.673 µM and 0.596 µM	10.1 µM and 7.92 µM	0.503 µM and 0.468 µM	3.49 µM and 2.78 µM	0.638 µM and 0.671 µM	5.45 µM and 6.65 µM	0.514 µM and 0.302 µM	14.7 µM and 3.35 µM	0.612 µM and 0.606 µM	4.11 µM and 3.85 µM	0.511 µM and 0.856 µM	2.57 µM and 9.19 µM	0.753 µM and 0.98 µM	11.5 µM and 12.9 µM	0.214 µM and 0.533 µM	4.93 µM and 8.78 µM	0.162 µM and 0.0782 µM	0.893 µM and 0.797 µM
O=C(Nc1cccc(-n2cc(-c3ccncc3)c(-c3ccc(O)c(Cl)c3)n2)c1)c1ccc2c(c1)OCCO2	7.96	> 100	> 100 µM	> 100 µM	4.77 µM	> 100 µM	3.27 µM	> 100 µM	4.54 µM	> 100 µM	4.88 µM	> 100 µM	4.02 µM	> 100 µM	6.2 µM	> 100 µM	> 100 µM	> 100 µM	2.26 µM	> 100 µM
CC(C)(C)OP(=O)(OC(C)(C)C)C(O)c1ccc(/C=C(\C#N)C(N)=O)cc1 (stereo not given)		> 100		> 100 µM		> 100 µM		> 100 µM		> 100 µM		> 100 µM		> 100 µM		> 100 µM		> 100 µM		> 100 µM
O=C(NCCc1ccccc1)Nc1ccc2cc3ccc(NC(=O)NCCc4ccccc4)cc3nc2c1	1.29	2.74	1.4 µM	2.97 µM	0.202 µM	0.445 µM	2.07 µM	6.93 µM	0.266 µM	0.774 µM	1.94 µM	4.79 µM	0.746 µM	2.16 µM	1.27 µM	3.57 µM	2.03 µM	5.7 µM	1.47 µM	3 µM
OB(O)c1ccccc1C#Cc1ccccc1B(O)O		30.8		67.9 µM		51.1 µM		> 100 µM		> 100 µM		75.9 µM		78.3 µM		48.2 µM		81.4 µM		> 100 µM
CC1=C(/C=C/C(=O)CC(=O)/C=C/C2=C(C)CCCC2(C)C)C(C)(C)CCC1	19.1	44.7	33.2 µM	> 100 µM	18.5 µM	81 µM	25.2 µM	> 100 µM	5.42 µM	24.2 µM	15.6 µM	54.4 µM	29.2 µM	> 100 µM	18.6 µM	82.1 µM	77 µM	> 100 µM	28 µM	> 100 µM
